Results from patent publication US8716287B2, “Pharmaceutical compounds” (Sentinel Oncology Limited, priority 2010, dated 2014).
“Also recorded” adds a separate entry of the source. Counter-ions that a name gives are not always drawn. Like-named read-outs stand apart in the source and are kept apart here.

Assays:
Chk-1 kinase = Chk-1 kinase (Homo sapiens (Human), UniProt O14757); experiment: Chk-1 kinase inhibiting activity (33P-ATP filter assay, CHKtide substrate); assay type: biochemical
Method: The compounds of the invention were tested for activity against Chk-1 kinase using the materials and protocols set out below.
Base Reaction buffer: 20 mM Hepes (pH 7.5), 10 mM MgCl2, 1 mM EGTA, 0.02% Brij35, 0.02 mg/ml BSA, 0.1 mM Na3VO4, 2 mM DTT, 1% DMSO
*Required cofactors are added individually to each kinase reaction
(i) Prepare indicated substrate in freshly prepared Base Reaction Buffer
(ii) Deliver any required cofactors to the substrate solution above
(iii) Deliver indicated kinase into the substrate solution and gently mix
(iv) Deliver compounds in DMSO into the kinase reaction mixture
(v) Deliver ^33P-ATP (specific activity 0.01 μCi/μl final) into the reaction mixture to initiate the reaction.
(vi) Incubate kinase reaction for 120 minutes at room temperature
(vii) Reactions are spotted onto P81 ion exchange paper (Whatman #3698-915)
(viii) Wash filters extensively in 0.1% phosphoric acid.
(ix) Dry filters and measure counts in scintillation counter
Recombinant full length construct, N-terminal GST tagged, purified from insect cells.
No special measures were taken to activate this kinase.
Final concentration in assay=0.5 nM
Peptide sequence: [[…]]
Final concentration in assay=20 μM
No additional cofactors are added to the reaction mixture

HT29 cells = experiment: Sensitisation of HT29 cells to SN38 (Alamar blue cell growth); assay type: cell-based, human; conditions: for fold shift in the IC50 value of SN38: HT29 cells
Method: Studies were carried out to test the sensitising effect of compounds of the invention on the ability of the DNA damaging compound 7-ethyl-10-hydroxycamptothecin (SN38), an active metabolite of the anti-cancer drug irinotecan, to inhibit cell growth in HT29 cells.
(§1) The following protocol was used:
(a) HT29 cells were seeded in 96-well plates at a concentration of 3000 cells per well and allowed to adhere overnight prior to addition of compound or vehicle control.
(b) SN38 was prepared from a 10 mM DMSO stock to give a final concentration range of 1 μM, 300 nM, 100 nM, 30 nM, 10 nM, 3 nM, 1 nM, and vehicle control.
(c) Test compounds were prepared from 10 mM DMSO stocks to typically give a final concentration range of 3 μM, 1 μM, 0.3 μM. 0.1 μM, 0.03 μM and vehicle control. The final DMSO content was 0.4%.
(d) Test compounds were incubated with the cells for 72 h at 37° C. 5% CO2 in a humidified atmosphere.
(e) Alamar blue 10% (v/v) was then added and incubated for a further 6 h, and fluorescent product detected using the BMG FLUOstar plate reader.
(f) Data were analysed using a 4-parameter logistic equation in GraphPad Prism.
Sensitisation is determined by the enhancement in IC50 of SN38 by the addition of the Chk-1 kinase inhibitor. In the protocol described above, the IC50 for SN-38 is determined the presence of varying doses of the Chk-1 inhibitor. The fold shift represents a decrease in IC50 for SN-38 at a dose of Chk-1 inhibitor that has no effect by itself.

MOLM-13 cells = experiment: Inhibition of cell growth in MOLM-13 cells (Alamar blue); assay type: cell-based; conditions: Homo sapiens, 72 h incubation
Method: (§2) Studies were carried out to test the effect of compounds on the inhibition of cell growth in MOLM-13 and MV4-11 cells.
as §1
(§3) (a) Cells were seeded in 96-well plates at cell densities of 2500/well (MOLM-13) and 10,000/well (MV4-11). Cells were then incubated overnight prior to addition of compound or vehicle control.
(§4) (b) Test compounds were prepared from 10 mM DMSO stocks to give a final concentration range of 10 μM, 3 μM, 1 μM, 0.3 μM, 0.1 μM, […], […] and vehicle control. The DMSO content was constant at 0.1%.
(§5) (c) Test compounds were incubated with the cells for 72 h at 37° C. 5% CO2 in a humidified atmosphere.
(§6) (d) Alamar blue 10% (v/v) was then added and incubated for a further 4 h, and fluorescent product detected using the BMG FLUOstar plate reader.
(§7) (e) Media only background values were subtracted and the data analysed using a 4-parameter logistic equation in GraphPad Prism.
(§8) From the results obtained by following the above protocol, the IC50 values against MOLM-13 and MV4-11 cells of the compounds of Examples 20, 21, 22, 25, 33, 35, 37, 38, 44, 48, 49, 50, 51, 53, 54 and 55 were determined.

MV4-11 cells = experiment: Inhibition of cell growth in MV4-11 cells (Alamar blue); assay type: cell-based; conditions: Homo sapiens, 72 h incubation
Method: as §2, §1, §3, §4, §5, §6, §7, §8

[1] = Chk-1 kinase, Table 3, read-out: IC50
[2] = ranges given, read-out: IC50 values against Chk-1 kinase

Sequence of Chk-1 kinase (O14757 whole entry): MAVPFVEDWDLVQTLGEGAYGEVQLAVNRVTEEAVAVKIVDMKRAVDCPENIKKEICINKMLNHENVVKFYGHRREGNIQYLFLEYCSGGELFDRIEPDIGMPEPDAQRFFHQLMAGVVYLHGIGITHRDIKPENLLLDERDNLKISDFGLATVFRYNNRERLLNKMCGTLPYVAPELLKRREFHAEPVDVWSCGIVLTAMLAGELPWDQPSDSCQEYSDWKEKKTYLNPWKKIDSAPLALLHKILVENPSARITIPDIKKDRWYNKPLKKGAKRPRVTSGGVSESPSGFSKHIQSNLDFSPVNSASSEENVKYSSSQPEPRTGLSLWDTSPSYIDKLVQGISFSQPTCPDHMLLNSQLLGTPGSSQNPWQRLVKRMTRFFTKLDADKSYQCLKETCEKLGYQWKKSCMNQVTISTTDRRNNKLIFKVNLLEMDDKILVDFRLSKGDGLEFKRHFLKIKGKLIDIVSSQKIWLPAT

SMILES	IC50 (Chk-1 kinase; [1]) [nM]	IC50 (Chk-1 kinase; [2]) [nM]	IC50 (MOLM-13 cells) [nM]	IC50 (MV4-11 cells) [nM]	fold shift in the IC50 value of SN38 (HT29 cells; test compound at 3 μM)	fold shift in the IC50 value of SN38 (HT29 cells; test compound at 10 μM)	Cell potentiation factor (HT29 cells; SN38 sensitisation assay in HT-29 cells, compound at 10 μM) [fold]	fold shift in the IC50 value of SN38 (HT29 cells; test compound at 1 μM)
COc1cc(CNCc2ccccc2)ccc1NC(=O)Nc1cnc(C#N)cn1 [Example 22, 1-[4-(Benzylamino-methyl)-2-methoxy-phenyl]-3-(5-cyano-pyrazin-2-yl)-urea]	99	10 to 100	> 3000	> 3000	three; also recorded: greater than ten	–	–	–
COc1cc(CCNCc2ccc(F)cc2)ccc1NC(=O)Nc1cnc(C)cn1 [Example 27, 1-{4-[2-(4-Fluoro-benzylamino)-ethyl]-2-methoxy-phenyl}-3-(5-methyl-pyrazin-2-yl)-urea hydrochloride]	33	10 to 100	–	–	three	–	–	–
COc1cc(CCNCCc2ccc(F)cc2)ccc1NC(=O)Nc1cnc(C#N)cn1 [Example 31, 1-(5-Cyano-pyrazin-2-yl)-3-(4-{2-[2-(4-fluoro-phenyl)-ethylamino]-ethyl}-2-methoxy-phenyl)-urea]	2.7	< 10	–	–	three	–	–	–
COc1cc(OCCNCc2ccc(F)cc2F)ccc1NC(=O)Nc1cnc(C#N)cn1 [Example 33, 1-(5-Cyano-pyrazin-2-yl)-3-{4-[2-(2,4-difluoro-benzylamino)-ethoxy]-2-methoxy-phenyl}-urea]	3	< 10	1300	1290	three	–	–	–
COc1cc(CCN[C@@H](C)c2ccc(F)cc2)ccc1NC(=O)Nc1cnc(C#N)cn1 [Example 44, 1-(5-Cyano-pyrazin-2-yl)-3-(4-{2-[(S)-1-(4-fluoro-phenyl)-ethylamino]-ethyl}-2-methoxy-phenyl)-urea]	5.1	< 10	850	960	–	–	–	–
COc1ccc([C@H](C)NCCc2cc(OC)c(NC(=O)Nc3cnc(C#N)cn3)cc2Cl)cc1 [Example 53, 1-(5-Chloro-2-methoxy-4-{2-[(S)-1-(4-methoxy-phenyl)-ethylamino]-ethyl}-phenyl)-3-(5-cyano-pyrazin-2-yl)-urea hydrochloride]	0.56	< 10	30	288	–	–	–	–
COc1cc(CCNCc2ccc3c(c2)OCO3)c(Cl)cc1NC(=O)Nc1cnc(C#N)cn1 [Example 54, 1-(4-{2-[(Benzo[1,3]-dioxol-5-ylmethyl)-amino]-ethyl}-5-chloro-2-methoxy-phenyl)-3-(5-cyano-pyrazin-2-yl)-urea hydrochloride]	–	< 10	14	52	–	–	–	–
COc1ccccc1CNCCc1cc(OC)c(NC(=O)Nc2cnc(C#N)cn2)cc1Cl [Example 55, 1-{5-Chloro-2-methoxy-4-[2-(2-methoxy-benzylamino)-ethyl]-phenyl}-3-(5-cyano-pyrazin-2-yl)-urea hydrochloride]	0.48	< 10	34	254	–	–	–	–
COc1cc(CNCc2ccc(F)cc2)ccc1NC(=O)Nc1cnc(C#N)cn1 [Example 57, 1-(5-Cyano-pyrazin-2-yl)-3-{4-[(4-fluoro-benzylamino)-methyl]-2-methoxy-phenyl}-urea hydrochloride]	8.9	< 10	–	–	greater than ten	–	–	two
COc1ccc(CNCc2ccc(NC(=O)Nc3cnc(C#N)cn3)c(OC)c2)cc1 [Example 60, 1-(5-Cyano-pyrazin-2-yl)-3-{2-methoxy-4-[(4-methoxy-benzylamino)-methyl]-phenyl}-urea]	1.6	< 10	–	–	three; also recorded: greater than ten	–	–	–

Further lines, with some results ahead:

IC50 (Chk-1 kinase; [1]) [nM]	IC50 (Chk-1 kinase; [2]) [nM]	IC50 (MOLM-13 cells) [nM]	IC50 (MV4-11 cells) [nM]	SMILES	fold shift in the IC50 value of SN38 (HT29 cells; test compound at 3 μM)	fold shift in the IC50 value of SN38 (HT29 cells; test compound at 10 μM)	Cell potentiation factor (HT29 cells; SN38 sensitisation assay in HT-29 cells, compound at 10 μM) [fold]	fold shift in the IC50 value of SN38 (HT29 cells; test compound at 1 μM)
2.8	< 10	500	810	COc1cc(CCNCc2ccc(F)cc2)ccc1NC(=O)Nc1cnc(C#N)cn1 [Example 20, 1-(5-Cyano-pyrazin-2-yl)-3-{4-[2-(4-fluoro-benzylamino)-ethyl]-2-methoxy-phenyl}-urea]	three; also recorded: greater than ten	–	–	–
4.1	< 10	1300	1290	COc1cc(OCCNCc2ccc(F)cc2)ccc1NC(=O)Nc1cnc(C#N)cn1 [Example 21, 1-(5-Cyano-pyrazin-2-yl)-3-{4-[2-(4-fluorobenzylamino)-ethoxy]-2-methoxy-phenyl}-urea]	–	–	–	–
18	10 to 100	1790	1710	N#Cc1cnc(NC(=O)Nc2ccc(CCNCc3ccc(N4CCOCC4)cc3)c(Cl)c2)cn1 [Example 25, 1-{3-Chloro-4-[2-(4-morpholin-4-yl-benzylamino)-ethyl]-phenyl}-3-(5-cyano-pyrazin-2-yl)-urea]	–	–	–	–
21	10 to 100	–	–	N#Cc1cnc(NC(=O)Nc2ccc(OCCNCc3ccc(F)cc3)c(Cl)c2)cn1 [Example 26, 1-{3-Chloro-4-[2-(4-fluoro-benzylamino)-ethoxy]-phenyl}-3-(5-cyano-pyrazin-2-yl)-urea]	three	–	–	–
320	100 to 1000	–	–	N#Cc1cnc(NC(=O)Nc2ccc(CNCc3ccccc3)cc2)cn1 [Example 29, 1-[4-(Benzylamino-methyl)-phenyl]-3-(5-cyano-pyrazin-2-yl)-urea]	–	four	4	–
69	–	–	–	N#Cc1cnc(NC(=O)Nc2cccc(CCNCc3ccc(F)cc3)c2)cn1 [Example 34, 1-(5-Cyano-pyrazin-2-yl)-3-{3-[2-(4-fluoro-benzylamino)-ethyl]-phenyl}-urea]	three	–	–	–
12	–	–	–	N#Cc1cnc(NC(=O)Nc2ccc(CCNCc3cccc(N4CCOCC4)c3)c(Cl)c2)cn1 [Example 39, 1-{3-Chloro-4-[2-(3-morpholin-4-yl-benzylamino)-ethyl]-phenyl}-3-(5-cyano-pyrazin-2-yl)-urea]	three	–	–	–
7.9	< 10	–	–	N#Cc1cnc(NC(=O)Nc2ccc(CCNCc3ccc(F)c(F)c3)c(Cl)c2)cn1 [Example 40, 1-{3-Chloro-4-[2-(3,4-difluoro-benzylamino)-ethyl]-phenyl}-3-(5-cyano-pyrazin-2-yl)-urea]	three	–	–	–
0.45	< 10	–	–	COc1cc(CCNCc2ccc(F)cc2)c(Br)cc1NC(=O)Nc1cnc(C#N)cn1 [Example 42, 1-{5-Bromo-4-[2-(4-fluoro-benzylamino)-ethyl]-2-methoxy-phenyl}-3-(5-cyano-pyrazin-2-yl)-urea hydrochloride]	greater than ten	–	–	two
3.3	< 10	240	860	COc1cc(CCNCc2ccc(N3CCN(C)CC3)cc2)ccc1NC(=O)Nc1cnc(C#N)cn1 [Example 51, 1-(5-Cyano-pyrazin-2-yl)-3-(2-methoxy-4-{2-[4-(4-methyl-piperazin-1-yl)-benzylamino]-ethyl}-phenyl)-urea]	–	–	–	–
